Reference: US20120270237A9, “METHODS FOR THE IDENTIFICATION OF KINASE INTERACTING MOLECULES AND FOR THE PURIFICATION OF KINASE PROTEINS” (Cellzone AG, priority 2009, published 2012)

Tests used:
Experiment in all cases: Kinobeads competition binding, HeLa Placenta lysate mix
Settings in all cases: 10 μM free compound
AMPKa2 = biological target: T1, AMPKa2 (Homo sapiens, UniProt P54646)
T1 construct: capturing and identification of kinases from mixed HeLa placenta lysates; endogenous in cells; host or cells: mixed lysate of HeLa cells and placenta tissue
Experimental: (§1) To one aliquot of cell lysate 10 μM of the free compound (FIG. 3, CZC31326) was added and allowed to bind to proteins in the lysate. Then the affinity matrix with the immobilized compound was added to capture proteins that were not interacting with the previously added free compound. Beads were separated from the lysate and bead bound proteins were eluted in SDS sample buffer and subsequently separated by SDS-Polyacrylamide gel electrophoresis (FIG. 10). Suitable gel bands were cut out and subjected to in-gel proteolytic digestion with trypsin. The second lysate aliquot was processed identically, however no free compound was added (DMSO solvent control). Peptides originating from samples 1 and 2 were labeled with iTRAQ reagents (iTRAQ 114 and iTRAQ 117) and the combined samples were analyzed with a nano-flow liquid chromatography system coupled online to a tandem mass spectrometer (LC-MS/MS) experiment followed by iTRAQ reporter ion quantification in the MS/MS spectra as described in Example 2.

CaMKK1 = biological target: T2, CaMKK1 (Homo sapiens, UniProt Q8N5S9)
T2 construct: capturing and identification of kinases from mixed HeLa placenta lysates; endogenous in cells; host or cells: mixed lysate of HeLa cells and placenta tissue
Experimental: as §1

FAK = biological target: T3, FAK (Homo sapiens, UniProt Q05397)
T3 construct: capturing and identification of kinases from mixed HeLa placenta lysates; endogenous in cells; host or cells: mixed lysate of HeLa cells and placenta tissue
Experimental: as §1

FLT4 = biological target: T4, FLT4 (Homo sapiens, UniProt P35916)
T4 construct: capturing and identification of kinases from mixed HeLa placenta lysates; endogenous in cells; host or cells: mixed lysate of HeLa cells and placenta tissue
Experimental: as §1

MAP3K6 = biological target: T5, MAP3K6 (Homo sapiens, UniProt O95382)
T5 construct: capturing and identification of kinases from mixed HeLa placenta lysates; endogenous in cells; host or cells: mixed lysate of HeLa cells and placenta tissue
Experimental: as §1

MRCKa = biological target: T6, MRCKa (Homo sapiens, UniProt Q5VT25)
T6 construct: capturing and identification of kinases from mixed HeLa placenta lysates; endogenous in cells; host or cells: mixed lysate of HeLa cells and placenta tissue
Experimental: as §1

MRCKb = biological target: T7, MRCKb (Homo sapiens, UniProt Q9Y5S2)
T7 construct: capturing and identification of kinases from mixed HeLa placenta lysates; endogenous in cells; host or cells: mixed lysate of HeLa cells and placenta tissue
Experimental: as §1

PKG1 = biological target: T8, PKG1 (Homo sapiens, UniProt Q13976)
T8 construct: capturing and identification of kinases from mixed HeLa placenta lysates; endogenous in cells; host or cells: mixed lysate of HeLa cells and placenta tissue
Experimental: as §1

SRC = biological target: T9, SRC (Homo sapiens, UniProt P12931)
T9 construct: capturing and identification of kinases from mixed HeLa placenta lysates; endogenous in cells; host or cells: mixed lysate of HeLa cells and placenta tissue
Experimental: as §1

TIE2 = biological target: T10, TIE2 (Homo sapiens, UniProt Q02763)
T10 construct: capturing and identification of kinases from mixed HeLa placenta lysates; endogenous in cells; host or cells: mixed lysate of HeLa cells and placenta tissue
Experimental: as §1

ALK2 = ALK2 (Homo sapiens, UniProt Q04771); set-up: capturing and identification of kinases from mixed HeLa placenta lysates; endogenous in cells; host or cells: mix of HeLa cell lysate and placenta tissue lysate
Experimental: as §1

ARG = ARG (Homo sapiens, UniProt P42684); set-up: capturing and identification of kinases from mixed HeLa placenta lysates; endogenous in cells; host or cells: mix of HeLa cell lysate and placenta tissue lysate
Experimental: as §1

CDK2 = CDK2 (Homo sapiens, UniProt P24941); set-up: capturing and identification of kinases from mixed HeLa placenta lysates; endogenous in cells; host or cells: mix of HeLa cell lysate and placenta tissue lysate
Experimental: as §1

CDK9 = CDK9 (Homo sapiens, UniProt P50750); set-up: capturing and identification of kinases from mixed HeLa placenta lysates; endogenous in cells; host or cells: mix of HeLa cell lysate and placenta tissue lysate
Experimental: as §1

CK2a2 = CK2a2 (Homo sapiens, UniProt P19784); set-up: capturing and identification of kinases from mixed HeLa placenta lysates; endogenous in cells; host or cells: mix of HeLa cell lysate and placenta tissue lysate
Experimental: as §1

MST2 = MST2 (Homo sapiens, UniProt Q13188); set-up: capturing and identification of kinases from mixed HeLa placenta lysates; endogenous in cells; host or cells: mix of HeLa cell lysate and placenta tissue lysate
Experimental: as §1

Structure (SMILES): CS(=O)(=O)Nc1ccccc1Nc1nc(Nc2cccc(OCCN)c2)ncc1Cl [CZC31326, N-(2-(2-(3-(2-aminoethoxy)phenylamino)-5-chloropyrimidin-4-ylamino)phenyl)methanesulfonamide]
- inhibition at 10 µM (AMPKa2): 95.2%
- inhibition at 10 µM (CaMKK1): 94.2%
- inhibition at 10 µM (FAK): 93.8%
- inhibition at 10 µM (FLT4): 89.3%
- inhibition at 10 µM (MAP3K6): 84.3%
- inhibition at 10 µM (MRCKa): 92.1%
- inhibition at 10 µM (MRCKb): 94%
- inhibition at 10 µM (PKG1): 90.4%
- inhibition at 10 µM (SRC): 92.2%
- inhibition at 10 µM (TIE2): 91.6%
- inhibition at 10 µM (ALK2): 94.3%
- inhibition at 10 µM (ARG): 91.2%
- Competition % (CDK2): 93%
- inhibition at 10 µM (CDK9): 95.3%
- inhibition at 10 µM (CK2a2): 95.4%
- inhibition at 10 µM (MST2): 93.9%
